Data reported in patent EP0089900B1, “New N-((2-oxo-1-pyrrolidinyl)acetyl)piperazines, the methods of producing such new compounds and their salts as well as pharmaceutical preparations for therapeutic use containing these compounds or salts” (PRODES S.A., priority 1982, dated 1983).

Tests used:
animals [1] = assay: Protection against lethality: anoxia by CNK, survival time; type: in vivo
animals [2] = assay: Protection against lethality: hypoxia-hypobara (decompression), survival time; type: in vivo
Acute toxicity LD50 = details: in vivo; species and route not given
anesthetized dogs = assay: Electromagnetic blood flow measurement (vertebral/cerebral blood flow); type: in vivo; details: vertebral blood flow, administration via saphenous vein
Procedure: After orotraqueal intubation, artificial respiration with normal air was instituted using a Manley Pul- movent respirator. The correct ventilation of the dogs was checked after all the surgical procedures by determining the pO2, pCO2 and pH in arterial blood samples, as well as several times during the experiment by means of an Astrup apparatus. Blood pressure (4) was measured in left saphenous artery by means of a Bell & Howell pressure transducer, and the heart rate by means of a Beckman ECG device.
Recordings were made on an ink-writing Beckman polygraph. Left saphenous vein and right saphenous artery were canulated with polyethylene catheters for drug administration and blood collection respectively.
Vertebral blood flow was measured by a non-cannulating electromagnetic flowmeter (Carolina Medical Electronics) placed in the vertebral artery.
The Carolina digital flowmeter was connected to an Omniscribe Houston Instruments plotter.
Piracetam and nicotinic acid were used as control drugs.

mouse = assay: Protection against lethality: quick decapitation, gasping time; type: in vivo; details: gasping time after decapitation of mouse
Excerpt: The second trial is the quick decapitation of mouse. The head has a typical mandibular movement, known as gasping, as searching the breathing air.

With `C=CCN1CCN(C(=O)CN2CCCC2=O)CC1` [N-[(2-oxo-1-pyrrolidinyl)acetyl]-N'-allylpiperazine] the “anoxia by CNK” value (animals [1]; dose 500 mg/kg) was “Active”, the hypoxia hypobara (animals [2]; dose 500 mg/kg) was “Active” and the LD50 (Acute toxicity LD50) was 4000 mg/kg. For the same compound, the effect (anesthetized dogs; dose 2,5 mg/kg) was “Active” and the gasping (mouse; dose 500 mg/kg) was “Active”.

For `COc1ccc(CN2CCN(C(=O)CN3CCCC3=O)CC2)cc1` [N-[(2-oxo-1-pyrrolidinyl)acetyl]-N'-(p-methoxybenzyl)piperazine], the “anoxia by CNK” value (animals [1]; dose 250 mg/kg) was “No effect”, the hypoxia hypobara (animals [2]; dose 250 mg/kg) was “Active” and the LD50 (Acute toxicity LD50) was 1110 mg/kg. The effect (anesthetized dogs; dose 1 mg/kg) was “Active” and the gasping (mouse; dose 250 mg/kg) was “Active”.

In the case of `O=C(CN1CCCC1=O)N1CCN(CC=Cc2ccccc2)CC1` [N-[(2-oxo-1-pyrrolidinyl)-acetyl]-N'-cinnamylpiperazine], the “anoxia by CNK” value (animals [1]; dose 300 mg/kg) is reported as “Active”, the hypoxia hypobara (animals [2]; dose 300 mg/kg) is reported as “Active” and the LD50 (Acute toxicity LD50) is reported as 1400 mg/kg. For the same compound, the effect (anesthetized dogs; dose 2,5 mg/kg) was “Active” and the gasping (mouse; dose 300 mg/kg) was “Active”.

With `O=C(O)c1cccnc1` [Nicotinic acid, reference compound] the effect (anesthetized dogs; no dose given) was “No effect”.

In the case of `NC(=O)CN1CCCC1=O` [(2-oxo-1-pyrrolidinyl)acetamide, reference compound], the “anoxia by CNK” value (animals [1]; dose 1000 mg/kg) is reported as “No effect”, the hypoxia hypobara (animals [2]; dose 1000 mg/kg) is reported as “No effect” and the effect (anesthetized dogs; no dose given) is reported as “No effect”. The gasping (mouse; dose 1000 mg/kg) was “No effect”.

For `O=C1NC(=O)C(c2ccccc2)(c2ccccc2)N1` [Diphenylhydantoine, reference compound], the “anoxia by CNK” value (animals [1]; dose 100 mg/kg) was “Active” and the hypoxia hypobara (animals [2]; dose 100 mg/kg) was “Active”.
